Measurements from ChEMBL document CHEMBL1137590, “(3R)-4-[(3R)-3-Amino-4-(2,4,5-trifluorophenyl)butanoyl]-3-(2,2,2-trifluoroethyl)-1,4-diazepan-2-one, a selective dipeptidyl peptidase IV inhibitor for the treatment of type 2 diabetes” (Bioorg Med Chem Lett, 2007).

Experiments:
[1] = biological target: Dipeptidyl peptidase 2 (Homo sapiens, UniProt Q9UHL4); assay: In vitro inhibition of QPP dipeptidylpeptidase II
[2] = Plasma clearance in dogs; type: ADME, organism-based, Canis lupus familiaris; details: dog, read-out: Clp
[3] = Half-life in dogs; type: ADME, organism-based, Canis lupus familiaris; details: dog, in vivo
[4] = Oral bioavailability in dogs; type: ADME, organism-based, Canis lupus familiaris; details: dog, in vivo
[5] = species on record: Canis familiaris; assay: Dose-normalized area under plasma concentration vs time curve in dogs; type: ADME, organism-based, Canis lupus familiaris; details: dog, in vivo
[6] = Plasma clearance in rats; type: ADME, organism-based; details: rat, read-out: Clp
[7] = Half-life in rats; type: ADME, organism-based; details: rat, in vivo
[8] = Oral bioavailability in rats; type: ADME, organism-based; details: rat, in vivo
[9] = species on record: Rattus norvegicus; assay: Dose-normalized area under plasma concentration vs time curve in rats; type: ADME, organism-based; details: in vivo

Row | IC50 [1] [µM] | clearance [2] [mL/min/kg] | half-life [3] [h] | bioavailability [4] [%] | AUC [5] | clearance [6] [mL/min/kg] | half-life [7] [h] | bioavailability [8] [%] | AUC [9] | Compound
1 | > 100 |  |  |  |  |  |  |  |  | N[C@@H](CC(=O)N1CCCNC(=O)C1)Cc1cc(F)c(F)cc1F
2 |  | 18 | 9 | 95 | 2.2 uM h/(mg/kg) | 94 | 2 | 36 | 0.2 uM h/(mg/kg) | N[C@@H](CC(=O)N1CCCNC(=O)[C@H]1CC(F)(F)F)Cc1cc(F)c(F)cc1F
3 |  | 9 | 4.3 | 100 | 8.5 uM h/(mg/kg) | 88 | 1 | 26 | 0.15 uM h/(mg/kg) | C[C@@H]1C(=O)NCCCN1C(=O)C[C@H](N)Cc1cc(F)c(F)cc1F
